Experiments:
Assay in all cases: Selectivity profiling, QuickScout TK Screening Panel
Format in all cases: biochemical
EphB4 = target: T1, EphB4 (Homo sapiens, UniProt P54760)
T1 construct: purchased Carna Biosciences
Method: (§1) The inhibitory effects of Compound 1 against 20 tyrosine kinases and 30 serine/threonine kinases were investigated using QuickScout™ TK and STK Screening Panel (Carna Biosciences, Kobe Japan). […] The results reveal that Compound 1 inhibits TNIK_N more potently (IC50; 9 nM) than the other 50 kinases.

LCK = target: T2, LCK (Homo sapiens, UniProt P06239)
T2 construct: purchased Carna Biosciences
Method: as §1

TYRO3 = target: T3, TYRO3 (Homo sapiens, UniProt Q06418)
T3 construct: purchased Carna Biosciences
T3 sequence (Q06418 41-890): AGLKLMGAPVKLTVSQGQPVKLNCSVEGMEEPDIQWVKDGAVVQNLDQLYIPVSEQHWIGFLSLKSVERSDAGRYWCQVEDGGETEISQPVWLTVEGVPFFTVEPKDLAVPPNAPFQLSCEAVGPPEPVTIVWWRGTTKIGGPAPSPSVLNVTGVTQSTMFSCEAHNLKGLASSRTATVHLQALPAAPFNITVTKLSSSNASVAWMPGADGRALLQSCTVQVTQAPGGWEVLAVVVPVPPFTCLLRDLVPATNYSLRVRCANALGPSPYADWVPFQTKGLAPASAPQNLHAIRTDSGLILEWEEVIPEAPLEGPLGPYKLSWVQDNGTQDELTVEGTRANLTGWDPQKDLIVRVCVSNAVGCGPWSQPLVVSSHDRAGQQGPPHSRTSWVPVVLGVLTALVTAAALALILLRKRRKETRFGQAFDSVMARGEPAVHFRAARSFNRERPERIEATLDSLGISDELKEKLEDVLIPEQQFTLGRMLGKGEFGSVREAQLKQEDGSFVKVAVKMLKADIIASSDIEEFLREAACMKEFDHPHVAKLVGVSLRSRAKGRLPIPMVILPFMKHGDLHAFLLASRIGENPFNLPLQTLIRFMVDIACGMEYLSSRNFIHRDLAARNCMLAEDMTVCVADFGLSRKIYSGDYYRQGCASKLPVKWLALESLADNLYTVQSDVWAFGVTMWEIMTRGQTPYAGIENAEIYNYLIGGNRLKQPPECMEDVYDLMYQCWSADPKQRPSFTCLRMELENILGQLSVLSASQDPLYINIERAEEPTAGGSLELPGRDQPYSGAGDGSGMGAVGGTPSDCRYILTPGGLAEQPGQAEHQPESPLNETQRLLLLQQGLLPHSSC
Method: as §1

FLT3 = target: T4, FLT3 (Homo sapiens, UniProt P36888)
T4 construct: purchased Carna Biosciences
T4 sequence (P36888 27-993): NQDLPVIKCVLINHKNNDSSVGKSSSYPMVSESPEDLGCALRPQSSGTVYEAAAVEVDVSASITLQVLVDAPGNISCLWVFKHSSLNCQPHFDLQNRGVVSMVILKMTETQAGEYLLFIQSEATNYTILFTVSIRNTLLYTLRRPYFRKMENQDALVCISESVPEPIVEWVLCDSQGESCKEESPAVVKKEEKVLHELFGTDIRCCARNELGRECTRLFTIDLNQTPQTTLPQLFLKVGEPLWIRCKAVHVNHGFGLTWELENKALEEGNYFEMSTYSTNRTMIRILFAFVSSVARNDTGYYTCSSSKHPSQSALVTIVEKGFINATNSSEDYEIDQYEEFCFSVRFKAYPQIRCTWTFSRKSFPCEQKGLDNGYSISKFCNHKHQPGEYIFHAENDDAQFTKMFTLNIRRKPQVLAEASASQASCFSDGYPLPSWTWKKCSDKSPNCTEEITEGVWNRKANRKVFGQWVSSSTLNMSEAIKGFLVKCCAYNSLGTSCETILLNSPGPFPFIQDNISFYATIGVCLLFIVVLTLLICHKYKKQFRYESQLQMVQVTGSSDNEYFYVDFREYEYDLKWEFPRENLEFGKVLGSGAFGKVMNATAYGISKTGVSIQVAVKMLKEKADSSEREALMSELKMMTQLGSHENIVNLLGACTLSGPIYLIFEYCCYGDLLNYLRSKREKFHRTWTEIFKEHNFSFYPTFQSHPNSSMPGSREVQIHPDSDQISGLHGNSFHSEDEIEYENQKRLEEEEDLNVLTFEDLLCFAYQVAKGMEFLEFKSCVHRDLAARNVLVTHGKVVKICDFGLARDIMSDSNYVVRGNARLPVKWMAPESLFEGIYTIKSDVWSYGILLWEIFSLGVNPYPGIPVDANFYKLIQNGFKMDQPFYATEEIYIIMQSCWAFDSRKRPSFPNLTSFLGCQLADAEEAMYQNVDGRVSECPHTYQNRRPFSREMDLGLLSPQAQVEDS
Method: as §1

PDGFRa = target: T5, PDGFRa (Homo sapiens, UniProt P16234)
T5 construct: purchased Carna Biosciences
T5 sequence (P16234 24-1089): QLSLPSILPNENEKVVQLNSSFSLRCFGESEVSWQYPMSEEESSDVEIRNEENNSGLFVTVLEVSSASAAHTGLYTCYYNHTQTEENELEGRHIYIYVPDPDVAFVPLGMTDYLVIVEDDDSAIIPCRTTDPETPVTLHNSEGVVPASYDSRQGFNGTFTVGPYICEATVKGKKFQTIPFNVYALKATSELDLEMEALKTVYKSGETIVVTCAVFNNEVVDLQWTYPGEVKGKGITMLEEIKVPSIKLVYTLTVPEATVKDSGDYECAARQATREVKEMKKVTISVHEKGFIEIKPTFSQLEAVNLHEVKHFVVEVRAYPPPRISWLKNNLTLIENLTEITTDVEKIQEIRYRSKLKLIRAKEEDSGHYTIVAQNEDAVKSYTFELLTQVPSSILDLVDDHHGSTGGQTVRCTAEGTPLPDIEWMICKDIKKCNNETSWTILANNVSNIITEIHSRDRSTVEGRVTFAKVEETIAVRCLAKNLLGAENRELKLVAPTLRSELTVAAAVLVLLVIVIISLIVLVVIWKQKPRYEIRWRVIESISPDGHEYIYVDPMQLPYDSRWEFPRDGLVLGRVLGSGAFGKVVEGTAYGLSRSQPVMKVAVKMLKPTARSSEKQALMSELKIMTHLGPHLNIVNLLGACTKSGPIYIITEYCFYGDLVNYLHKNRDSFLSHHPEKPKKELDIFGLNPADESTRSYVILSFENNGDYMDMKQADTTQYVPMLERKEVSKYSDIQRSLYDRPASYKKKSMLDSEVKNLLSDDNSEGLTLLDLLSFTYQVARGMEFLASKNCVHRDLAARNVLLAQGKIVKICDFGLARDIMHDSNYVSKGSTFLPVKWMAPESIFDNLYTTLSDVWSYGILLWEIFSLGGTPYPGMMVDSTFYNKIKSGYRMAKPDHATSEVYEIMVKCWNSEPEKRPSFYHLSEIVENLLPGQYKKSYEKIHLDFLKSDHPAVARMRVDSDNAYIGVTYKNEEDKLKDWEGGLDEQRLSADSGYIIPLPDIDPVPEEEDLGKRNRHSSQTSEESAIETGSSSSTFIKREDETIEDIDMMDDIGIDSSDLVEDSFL
Method: as §1

FGFR1 = target: T6, FGFR1 (Homo sapiens, UniProt P11362)
T6 construct: purchased Carna Biosciences
T6 sequence (P11362 22-822): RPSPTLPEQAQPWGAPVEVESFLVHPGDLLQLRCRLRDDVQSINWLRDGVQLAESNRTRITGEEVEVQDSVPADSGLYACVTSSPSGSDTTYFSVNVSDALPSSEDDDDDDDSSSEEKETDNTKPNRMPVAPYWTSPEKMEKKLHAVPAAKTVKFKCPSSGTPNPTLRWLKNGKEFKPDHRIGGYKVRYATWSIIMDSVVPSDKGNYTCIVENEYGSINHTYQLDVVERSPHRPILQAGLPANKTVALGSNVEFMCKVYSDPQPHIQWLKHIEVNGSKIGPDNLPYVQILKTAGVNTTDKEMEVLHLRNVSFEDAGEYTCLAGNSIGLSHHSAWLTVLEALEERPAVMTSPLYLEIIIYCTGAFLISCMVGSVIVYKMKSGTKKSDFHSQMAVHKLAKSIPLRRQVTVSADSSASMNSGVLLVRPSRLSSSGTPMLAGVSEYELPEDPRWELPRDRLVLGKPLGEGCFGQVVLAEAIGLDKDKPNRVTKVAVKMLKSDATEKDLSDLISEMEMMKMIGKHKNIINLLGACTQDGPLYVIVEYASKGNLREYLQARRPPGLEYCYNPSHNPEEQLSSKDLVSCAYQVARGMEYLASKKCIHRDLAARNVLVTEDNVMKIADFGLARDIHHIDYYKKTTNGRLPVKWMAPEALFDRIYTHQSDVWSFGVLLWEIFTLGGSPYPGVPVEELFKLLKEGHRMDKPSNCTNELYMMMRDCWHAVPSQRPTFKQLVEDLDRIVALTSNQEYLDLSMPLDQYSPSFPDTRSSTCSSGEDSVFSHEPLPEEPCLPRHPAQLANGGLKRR
Method: as §1

T1 sequence (P54760 16-987): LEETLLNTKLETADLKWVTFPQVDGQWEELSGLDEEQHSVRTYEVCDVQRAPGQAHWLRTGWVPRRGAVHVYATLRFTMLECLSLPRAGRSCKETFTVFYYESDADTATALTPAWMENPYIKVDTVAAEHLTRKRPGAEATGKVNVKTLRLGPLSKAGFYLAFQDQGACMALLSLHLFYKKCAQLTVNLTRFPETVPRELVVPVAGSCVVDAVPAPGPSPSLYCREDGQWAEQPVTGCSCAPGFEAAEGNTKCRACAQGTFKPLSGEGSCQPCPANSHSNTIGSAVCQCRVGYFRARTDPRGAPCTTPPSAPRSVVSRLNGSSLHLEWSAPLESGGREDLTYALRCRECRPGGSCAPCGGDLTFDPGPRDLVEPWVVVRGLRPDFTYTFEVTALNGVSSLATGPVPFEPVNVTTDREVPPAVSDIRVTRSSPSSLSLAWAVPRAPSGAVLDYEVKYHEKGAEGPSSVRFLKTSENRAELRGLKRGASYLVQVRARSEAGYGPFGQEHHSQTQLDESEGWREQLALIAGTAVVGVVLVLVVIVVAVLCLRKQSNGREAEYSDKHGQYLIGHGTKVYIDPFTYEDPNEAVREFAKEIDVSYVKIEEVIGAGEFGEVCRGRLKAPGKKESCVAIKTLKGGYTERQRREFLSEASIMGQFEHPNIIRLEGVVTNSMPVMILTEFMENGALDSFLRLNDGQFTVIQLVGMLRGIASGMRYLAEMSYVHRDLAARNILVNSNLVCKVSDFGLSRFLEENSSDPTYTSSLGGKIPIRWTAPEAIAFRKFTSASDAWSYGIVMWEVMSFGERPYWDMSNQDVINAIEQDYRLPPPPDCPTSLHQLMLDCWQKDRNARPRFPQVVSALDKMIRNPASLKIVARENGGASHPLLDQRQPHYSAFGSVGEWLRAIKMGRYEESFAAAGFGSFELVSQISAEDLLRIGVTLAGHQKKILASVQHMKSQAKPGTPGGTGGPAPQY

- IC50 (EphB4): > 300 nM
- IC50 (LCK): > 300 nM
- IC50 (TYRO3): > 300 nM
- IC50 (FLT3): 95 nM
- IC50 (PDGFRa): 150 nM
- IC50 (FGFR1): > 300 nM
SMILES: CC(=O)Nc1ccc(C(=O)Nc2sc(Nc3ccccc3)nc2C(N)=O)cc1 [Compound 1, 5-(4-acetamidobenzamido)-2-(phenylamino)thiazole-4-carboxamide]

Reference: US20100216795A1, “TNIK INHIBITOR AND THE USE” (priority 2008, published 2010)
